Laboratory results taken from patent publication US11406592B2, “Drug delivery methods, structures, and compositions for nasolacrimal system” (Mati Therapeutics Inc., priority 2006, dated 2022).

Key:
[1] = Bimatoprost bulk sample elution, normalized to ng per device per day; assay type: physicochemical; details: for zero order elution rate: about 90 days
Description: Bulk samples of 1% Bimatoprost having a known diameter of 0.076 cm (0.76 mm) were prepared. The height of each sample was determined from the weight and known diameter of the sample.
The calculated heights ranged from 0.33 cm to 0.42 cm. The exposed surface area on each end of each bulk sample was approximately 0.045 cm^2, providing volumes of 0.019 cm^3 and 0.015 cm^3 for the 0.42 and 0.33 cm samples, respectively. The exposed an exposed surface area of samples calculated from the height and diameter without a drug sheath was approximately 0.1 cm^2. Three formulations were evaluated: 1) silicone 4011, 1% Bimatoprost, 0% surfactant; 2) silicone 4011, 1% Bimatoprost, approximately 11% surfactant; and 3) silicone 4011, 1% Bimatoprost, approximately 33% surfactant. The elution data measured for the bulk samples with formulation 1, 2 and 3 were normalized to ng per device per day (ng/device/day) assuming a surface area of the bulk device is 0.1 cm^2 and the surface area of the clinical device is 0.00078 cm^2 (0.3 mm diameter). […] The normalized elution profile is about 10 ng per day. […] Similar formulations can be used with drug core sheaths and a shaped exposed surface of the core exposed to the tear to increase the exposed surface area as described above and deliver the drug in therapeutic amounts over an extended period.
In some embodiments, the core can comprise a 0.76 mm diameter core with an exposed surface diameter of 0.76 mm, corresponding to an exposed surface area of 0.0045 cm^2. The core can be covered with a sheath to define the exposed surface of the core as described above The normalized elution profile for such a device, based on the bulk sample data above, is approximately 6 times (0.0045 cm^2/0.00078 cm^2) the elution profile for the device with a 0.3 mm diameter exposed surface area. Thus, a zero order elution profile with an elution rate of about 60 ng per day can be obtained over a period of about 90 days. If the exposed surface area is increased to about 0.0078 cm2, for example with many of the exposed surface shapes as described above, the zero order elution rat is about 100 ng per day over a period of about 90 days. The concentration can also be increased from 1%. Similar elution profiles can be obtained with Latanoprost.

IOP = details: cited from earlier work
[2] = Latanoprost elution from drug cores of four formulations (silicone 4011, 6385 and/or NaCl); assay type: physicochemical; details: formulations A-D, non-sterile drug cores
Description: Drug cores were manufactured as described above with Latanoprost and silicone 4011, 6385 and/or NaCl. Four formulations were manufactured as follows: A) silicone 4011, approximately 20% Latanoprost, and approximately 20% NaCL; B) silicone 4011, approximately 20% Latanoprost, and approximately 10% NaCl; C) silicone 4011, approximately 10% Latanoprost, and approximately 10% NaCl; and D) silicone 6385, approximately 20% Latanoprost. […] The results shown are for non-sterile drug cores. Similar results have been obtained with sterile drug cores of Latanoprost.

[3] = Latanoprost drug core elution study (in vitro), 7.4 pH buffer, HPLC; assay type: physicochemical; details: for Duration: calculated time when ~10% of original drug remains
Description: Drug cores as described above have been fabricated with different cross sectional sizes of 0.006 inches, 0.012 inches, and 0.025 inches, and drug concentrations of 5%, 10% and 20% in a silicone matrix. Theses drug cores can be made with a Syringe Tube and Cartridge Assembly, Mixing Latanoprost with Silicone, and Injecting the mixture into a polyimide tube which is cut to desired lengths and sealed. The length of the drug cores were approximately 0.80 to 0.95 mm, which for a diameter of 0.012 inches (0.32 mm) corresponds to total Latanoprost content in the drug cores of approximately 3.5 μg, 7 μg and 14 μg for concentrations of 5%, 10% and 20%, respectively.
Syringe Tube and Cartridge Assembly. 1. Take polyimide tubing of three different diameters 0.006 inches, 0.0125 inches and 0.025 inches. 2. Cut polyimide tubing of different diameters to ˜15 cm length. 3. Insert Polyimide tubes into a Syringe Adapter. 4. Adhesive bond polyimide tube into luer adapter (Loctite, low viscosity UV cure). 5. Trim end of assembly. 6. Clean the cartridge assembly using distilled water and then with methanol and dry it in oven at 60° C.
Mix Latanoprost with Silicone. Prepare Latanoprost. Latanoprost is provided as a 1% solution in methylacetate. Place the appropriate amount of solution into a dish and using a nitrogen stream, evaporate the solution until only the Latanoprost remains. Place the dish with the Latanoprost oil under vacuum for 30 minutes. Combine Latanoprost with silicone. Prepare three different concentrations of Latanoprost (5%, 10% and 20%) in silicon Nusil 6385 and inject it into tubing of different diameters (0.006 in, 0.012 in and 0.025 inches) to generate 3×3 matrixes. The percent of Latanoprost to silicone is determined by the total weight of the drug matrix. Calculation: Weight of Latanoprost/(weight of Latanoprost+weight of silicone)×100=percent drug.
Inject tube. 1. Insert Cartridge and Polyimide tubes assembly into 1 ml syringe. 2. Add one drop of catalyst, (MED-6385 Curing Agent) in the syringe. 3. Force excess catalyst out of the polyimide tube with clean air. 4. Fill syringe with silicone drug matrix. 5. Inject tube with drug matrix until the tube is filled or the syringe plunger becomes too difficult to push. 6. Close off the distal end of the polyimide tube and maintain pressure until the silicone begins to solidify. 7. Allow to cure at room temperature for 12 hours. 8. Place under vacuum for 30 minutes. 9. Place tube in right size trim fixture (prepared in house to hold different size tubing) and cut drug inserts to length (0.80-0.95 mm).
Testing. Elution study (in vitro). 1. Place 10 plugs of same size and same concentration per centrifuge tube and add 1.5 ml of 7.4 pH buffer solution to it. 2. Change the solvent with fresh 7.4 pH buffer after appropriate time. 3. Take HPLC of the eluant at 210 nm with PDA detector 2996 using Sunfire C18, 3 mm×10 mm column (Waters Corporation, Milford, Mass.). Acetonitrile and water mixture is used for gradient elution. Calibration was done in house before and after each analysis, using in-house standards with precisely weighed concentration of Latanoprost. 4. Calculate the amount of drug release per day per device for different size tubings having different concentrations of Latanoprost. 5. Plot elution rate vs area and concentration for day 1 and day 14.

## CCNC(=O)CCC/C=C\C[C@@H]1[C@@H](/C=C/[C@@H](O)CCc2ccccc2)[C@H](O)C[C@@H]1O [Bimatoprost]
[1]; each of formulations 1-3, from about ten days to about 90 days
  release kinetics: approximately zero order release kinetics
[1]; extrapolated from bulk data to 0.76 mm exposed surface diameter (0.0045 cm^2)
  zero order elution rate: about 60 ng per day
[1]; extrapolated from bulk data to exposed surface area about 0.0078 cm2
  zero order elution rate: about 100 ng per day
[1]; silicone 4011 with 1% Bimatoprost, formulations 1-3 (0%, 11%, 33% surfactant), normalized to 0.3 mm exposed surface diameter (0.00078 cm^2)
  normalized elution profile: about 10 ng per day

## CC(C)OC(=O)CCC/C=C\C[C@@H]1[C@@H](CC[C@@H](O)CCc2ccccc2)[C@H](O)C[C@@H]1O [Latanoprost]
IOP; about 200 ng of drug remaining on the eye after a drop of Xalatan
  time effective in lowering IOP: at least 24 hours
IOP; lowest doses of 12.5 μg/mL QD or 15 μg/mL BID
  IOP reduction relative to the 50 μg/mL QD dose: 60-75%
[2]; by 3 weeks (21 days)
  elution rate: about 100 ng per device per day
[2]; initial
  initial elution rate: approximately 300 ng per device per day
[3]; 7 μg core (10%), 0.32 mm diameter, 0.95 mm long, from 10 to 20 days
  elution rate compared with the 14 μg core: comparable rates
[3]; 14 μg core (20%), 0.32 mm diameter, 0.95 mm long, from about 10 to 40 days
  elution rate: approximately 100 ng per day
[3]; buffered saline elution system, initially
  initial elution of Latanoprost from the plug: approximately 500 ng per day
[3]; buffered saline elution system, within 7-14 days, depending on initial concentration
  elution of Latanoprost from the plug after drop-off: approximately 100 ng/day
[3]; day 1, 0.006 inch diameter core (exposed surface area 0.02 mm^2)
  quantity of Latanoprost released: about 200 ng
[3]; day 1, 0.012 inch diameter core (exposed surface area 0.07 mm^2)
  quantity of Latanoprost released: ~400 ng
[3]; day 1, 0.025 inch diameter core (exposed surface area 0.32 mm^2)
  quantity of Latanoprost released: ~1200 ng
[3]; day 14, 0.006 inch diameter core (exposed surface area 0.02 mm^2)
  quantity of Latanoprost released: about 25 ng
[3]; day 14, 0.012 inch (0.32 mm) diameter core (exposed surface area 0.07 mm^2)
  quantity of Latanoprost released: ~100 ng
[3]; day 14, 0.025 inch diameter core (exposed surface area 0.32 mm^2)
  quantity of Latanoprost released: ~300 ng
[3]; total Latanoprost content 3.5 μg
  Duration: ~25 days
[3]; total Latanoprost content 7 μg
  Duration: ~45 days
[3]; total Latanoprost content 14 μg
  Duration: ~100 days
